Assay results taken from ChEMBL document CHEMBL2331144, “Synthesis and anticancer activity of analogues of phenstatin, with a phenothiazine A-ring, as a new class of microtubule-targeting agents” (Bioorg Med Chem Lett, 2013).

How the values were obtained:
RXF 393 = test: Growth inhibition of human RXF393 cells after 48 hrs by sulforhodamine B assay; type: functional; conditions: RXF 393, 48 h
CAKI-1 = test: Growth inhibition of human CAKI-1 cells after 48 hrs by sulforhodamine B assay; type: functional; conditions: CAKI-1, 48 h
OVCAR-5 = test: Growth inhibition of human OVCAR5 cells after 48 hrs by sulforhodamine B assay; type: functional; conditions: OVCAR-5, 48 h
BT-549 = test: Growth inhibition of human BT549 cells after 48 hrs by sulforhodamine B assay; type: functional; conditions: BT-549, 48 h
Ovis aries = species: Ovis aries; test: Inhibition of sheep brain tubulin polymerization at 100 uM using DAPI by fluorimetry
SN12C = test: Growth inhibition of human SN12C cells after 48 hrs by sulforhodamine B assay; type: functional
[1] = Growth inhibition of human HCC2998 cells after 48 hrs by sulforhodamine B assay; type: functional; conditions: HCC 2998, 48 h
DU-145 = test: Growth inhibition of human DU145 cells after 48 hrs by sulforhodamine B assay; type: functional; conditions: DU-145, 48 h
T47D = test: Growth inhibition of human T47D cells after 48 hrs by sulforhodamine B assay; type: functional
ACHN = test: Growth inhibition of human ACHN cells after 48 hrs by sulforhodamine B assay; type: functional
MOLT-4 = test: Growth inhibition of human MOLT4 cells after 48 hrs by sulforhodamine B assay; type: functional; conditions: MOLT-4, 48 h
OVCAR-4 = test: Growth inhibition of human OVCAR4 cells after 48 hrs by sulforhodamine B assay; type: functional; conditions: OVCAR-4, 48 h
A549 = test: Growth inhibition of human A549/ATCC cells after 48 hrs by sulforhodamine B assay; type: functional; conditions: A549, 48 h
MDA-MB-468 = test: Growth inhibition of human MDA-MB-468 cells after 48 hrs by sulforhodamine B assay; type: functional; conditions: MDA-MB-468, 48 h
SK-OV-3 = test: Growth inhibition of human SKOV3 cells after 48 hrs by sulforhodamine B assay; type: functional; conditions: SK-OV-3, 48 h
Malme-3M = test: Growth inhibition of human MALME-3M cells after 48 hrs by sulforhodamine B assay; type: functional
UACC-257 = test: Growth inhibition of human UACC257 cells after 48 hrs by sulforhodamine B assay; type: functional; conditions: UACC-257, 48 h
UO-31 = test: Growth inhibition of human UO31 cells after 48 hrs by sulforhodamine B assay; type: functional; conditions: UO-31, 48 h
[2] = Growth inhibition of human Hs 578T cells after 48 hrs by sulforhodamine B assay; type: functional
SK-MEL-2 = test: Growth inhibition of human SK-MEL-2 cells after 48 hrs by sulforhodamine B assay; type: functional; conditions: SK-MEL-2, 48 h
IGROV-1 = test: Growth inhibition of human IGROV1 cells after 48 hrs by sulforhodamine B assay; type: functional; conditions: IGROV-1, 48 h
OVCAR-3 = test: Growth inhibition of human OVCAR3 cells after 48 hrs by sulforhodamine B assay; type: functional; conditions: OVCAR-3, 48 h
RPMI-8226 = test: Growth inhibition of human RPMI8226 cells after 48 hrs by sulforhodamine B assay; type: functional; conditions: RPMI-8226, 48 h
PC-3 = test: Growth inhibition of human PC3 cells after 48 hrs by sulforhodamine B assay; type: functional; conditions: PC-3, 48 h
NCI-H23 = test: Growth inhibition of human NCI-H23 cells after 48 hrs by sulforhodamine B assay; type: functional; conditions: NCI-H23, 48 h
LOX IMVI = test: Growth inhibition of human LOXIMVI cells after 48 hrs by sulforhodamine B assay; type: functional
A498 = test: Growth inhibition of human A498 cells after 48 hrs by sulforhodamine B assay; type: functional; conditions: A498, 48 h
SW-620 = test: Growth inhibition of human SW620 cells after 48 hrs by sulforhodamine B assay; type: functional; conditions: SW-620, 48 h
HOP-62 = test: Growth inhibition of human HOP62 cells after 48 hrs by sulforhodamine B assay; type: functional; conditions: HOP-62, 48 h
NCI-H522 = test: Growth inhibition of human NCI-H522 cells after 48 hrs by sulforhodamine B assay; type: functional; conditions: NCI-H522, 48 h
K562 = test: Growth inhibition of human K562 cells after 48 hrs by sulforhodamine B assay; type: functional; conditions: K562, 48 h
MCF7 = test: Growth inhibition of human MCF7 cells after 48 hrs by sulforhodamine B assay; type: functional; conditions: MCF7, 48 h
SNB-75 = test: Growth inhibition of human SNB75 cells after 48 hrs by sulforhodamine B assay; type: functional; conditions: SNB-75, 48 h
HCT-116 = test: Growth inhibition of human HCT116 cells after 48 hrs by sulforhodamine B assay; type: functional; conditions: HCT-116, 48 h
TK-10 = test: Growth inhibition of human TK10 cells after 48 hrs by sulforhodamine B assay; type: functional; conditions: TK-10, 48 h
SR = test: Growth inhibition of human SR cells after 48 hrs by sulforhodamine B assay; type: functional
M14 = test: Growth inhibition of human M14 cells after 48 hrs by sulforhodamine B assay; type: functional; conditions: M14, 48 h
MDA-MB-435 = test: Growth inhibition of human MDA-MB-435 cells after 48 hrs by sulforhodamine B assay; type: functional; conditions: MDA-MB-435, 48 h
HL-60(TB) = test: Growth inhibition of human HL-60(TB) cells after 48 hrs by sulforhodamine B assay; type: functional; conditions: HL-60, 48 h
MDA-MB-231 = test: Growth inhibition of human MDA-MB-231 cells after 48 hrs by sulforhodamine B assay; type: functional; conditions: MDA-MB-231, 48 h
SF-539 = test: Growth inhibition of human SF539 cells after 48 hrs by sulforhodamine B assay; type: functional; conditions: SF-539, 48 h
CCRF-CEM = test: Growth inhibition of human CCRF-CEM cells after 48 hrs by sulforhodamine B assay; type: functional
HT-29 = test: Growth inhibition of human HT-29 cells after 48 hrs by sulforhodamine B assay; type: functional; conditions: HT-29, 48 h
SK-MEL-28 = test: Growth inhibition of human SK-MEL-28 cells after 48 hrs by sulforhodamine B assay; type: functional; conditions: SK-MEL-28, 48 h
KM12 = test: Growth inhibition of human KM12 cells after 48 hrs by sulforhodamine B assay; type: functional; conditions: KM12, 48 h
[3] = Growth inhibition of human NCI-ADR-RES cells after 48 hrs by sulforhodamine B assay; type: functional
UACC-62 = test: Growth inhibition of human UACC62 cells after 48 hrs by sulforhodamine B assay; type: functional; conditions: UACC-62, 48 h
SF-268 = test: Growth inhibition of human SF268 cells after 48 hrs by sulforhodamine B assay; type: functional; conditions: SF-268, 48 h
HCT-15 = test: Growth inhibition of human HCT15 cells after 48 hrs by sulforhodamine B assay; type: functional; conditions: HCT-15, 48 h
SF-295 = test: Growth inhibition of human SF295 cells after 48 hrs by sulforhodamine B assay; type: functional; conditions: SF-295, 48 h
786-0 = test: Growth inhibition of human 786-0 cells after 48 hrs by sulforhodamine B assay; type: functional; conditions: 786-0, 48 h
SK-MEL-5 = test: Growth inhibition of human SK-MEL-5 cells after 48 hrs by sulforhodamine B assay; type: functional; conditions: SK-MEL-5, 48 h
COLO 205 = test: Growth inhibition of human COLO205 cells after 48 hrs by sulforhodamine B assay; type: functional; conditions: COLO 205, 48 h
NCI-H460 = test: Growth inhibition of human NCI-H460 cells after 48 hrs by sulforhodamine B assay; type: functional; conditions: NCI-H460, 48 h
OVCAR-8 = test: Growth inhibition of human OVCAR8 cells after 48 hrs by sulforhodamine B assay; type: functional; conditions: OVCAR-8, 48 h

SMILES: CN(C)Cc1cn(C(=O)N2c3ccccc3Sc3ccccc32)c2ccccc12
- GI50 (RXF 393): 1210 nM
- GI50 (CAKI-1): 1530 nM
- GI50 (OVCAR-5): 1500 nM
- GI50 (BT-549): 2960 nM
- inhibition (Ovis aries): 9%
- GI50 (SN12C): 1980 nM
- GI50 [1]: 1850 nM
- GI50 (DU-145): 1980 nM
- GI50 (T47D): 2040 nM
- GI50 (ACHN): 1500 nM
- GI50 (MOLT-4): 2130 nM
- GI50 (OVCAR-4): 2040 nM
- GI50 (A549): 1680 nM
- GI50 (MDA-MB-468): 1160 nM
- GI50 (SK-OV-3): 2020 nM
- GI50 (Malme-3M): 1990 nM
- GI50 (UACC-257): 1600 nM
- GI50 (UO-31): 1610 nM
- GI50 [2]: 2080 nM
- GI50 (SK-MEL-2): 2230 nM
- GI50 (IGROV-1): 1730 nM
- GI50 (OVCAR-3): 1950 nM
- GI50 (RPMI-8226): 1840 nM
- GI50 (PC-3): 1620 nM
- GI50 (NCI-H23): 4850 nM
- GI50 (LOX IMVI): 1800 nM
- GI50 (A498): 1240 nM
- GI50 (SW-620): 1840 nM
- GI50 (HOP-62): 1680 nM
- GI50 (NCI-H522): 1900 nM
- GI50 (K562): 1950 nM
- GI50 (MCF7): 1790 nM
- GI50 (SNB-75): 1650 nM
- GI50 (HCT-116): 1740 nM
- GI50 (TK-10): 1730 nM
- GI50 (SR): 1760 nM
- GI50 (M14): 1970 nM
- GI50 (MDA-MB-435): 1740 nM
- GI50 (HL-60(TB)): 2220 nM
- GI50 (MDA-MB-231): 1170 nM
- GI50 (SF-539): 1640 nM
- GI50 (CCRF-CEM): 2000 nM
- GI50 (HT-29): 1790 nM
- GI50 (SK-MEL-28): 1720 nM
- GI50 (KM12): 1890 nM
- GI50 [3]: 2530 nM
- GI50 (UACC-62): 1720 nM
- GI50 (SF-268): 2920 nM
- GI50 (HCT-15): 1700 nM
- GI50 (SF-295): 1750 nM
- GI50 (786-0): 1750 nM
- GI50 (SK-MEL-5): 1600 nM
- GI50 (COLO 205): 1850 nM
- GI50 (NCI-H460): 1810 nM
- GI50 (OVCAR-8): 1780 nM

SMILES: COc1c(F)ccc(C(=O)N2c3ccccc3Sc3ccccc32)c1F
- GI50 (RXF 393): 2290 nM
- GI50 (CAKI-1): 4010 nM
- GI50 (OVCAR-5): 24100 nM
- GI50 (BT-549): 5210 nM
- inhibition (Ovis aries): 10%
- GI50 (SN12C): 6070 nM
- GI50 [1]: 11700 nM
- GI50 (DU-145): 14000 nM
- GI50 (T47D): 5240 nM
- GI50 (ACHN): 7960 nM
- GI50 (MOLT-4): 4290 nM
- GI50 (OVCAR-4): 10300 nM
- GI50 (A549): 4070 nM
- GI50 (MDA-MB-468): 1700 nM
- GI50 (SK-OV-3): 12200 nM
- GI50 (Malme-3M): 3090 nM
- GI50 (UACC-257): 6510 nM
- GI50 (UO-31): 6520 nM
- GI50 [2]: 6920 nM
- GI50 (SK-MEL-2): 3450 nM
- GI50 (IGROV-1): 4870 nM
- GI50 (OVCAR-3): 4200 nM
- GI50 (RPMI-8226): 3220 nM
- GI50 (PC-3): 2840 nM
- GI50 (NCI-H23): 4890 nM
- GI50 (LOX IMVI): 4720 nM
- GI50 (A498): 2220 nM
- GI50 (SW-620): 3680 nM
- GI50 (HOP-62): 8370 nM
- GI50 (NCI-H522): 2700 nM
- GI50 (K562): 3240 nM
- GI50 (MCF7): 5500 nM
- GI50 (SNB-75): 2320 nM
- GI50 (HCT-116): 3600 nM
- GI50 (TK-10): 10200 nM
- GI50 (SR): 2330 nM
- GI50 (M14): 3860 nM
- GI50 (MDA-MB-435): 1800 nM
- GI50 (HL-60(TB)): 3990 nM
- GI50 (MDA-MB-231): 3660 nM
- GI50 (SF-539): 5030 nM
- GI50 (CCRF-CEM): 5000 nM
- GI50 (HT-29): 3240 nM
- GI50 (SK-MEL-28): 4930 nM
- GI50 (KM12): 4010 nM
- GI50 [3]: 2970 nM
- GI50 (UACC-62): 2680 nM
- GI50 (SF-268): 6500 nM
- GI50 (HCT-15): 3070 nM
- GI50 (SF-295): 6100 nM
- GI50 (786-0): 7570 nM
- GI50 (SK-MEL-5): 2950 nM
- GI50 (COLO 205): 6470 nM
- GI50 (NCI-H460): 3670 nM
- GI50 (OVCAR-8): 10000 nM
